Activity calls are given as the source filed them. No cut-off for these calls is given here.
What was measured:
Plasmodium falciparum [1] = assay: Antiplasmodial activity against chloroquine-resistant Plasmodium falciparum INDO assessed as growth inhibition by SYBER green 1 dye based fluorescence assay; assay type: functional, organism-based
[2] = Cytotoxicity against human HEK293 cells assessed as cell viability measured for 24 hrs by MTT assay; assay type: cell-based
[3] = Selectivity index, ratio of CC50 for human HEK293 cells to IC50 for antiplasmodial activity against chloroquine-resistant Plasmodium falciparum INDO; assay type: toxicity; conditions: HEK293 cells versus Plasmodium falciparum INDO
A549 = assay: Anticancer activity against human A549 cells assessed as cell growth inhibition measured for 72 hrs by MTT assay; assay type: functional, cell-based; conditions: A549, 72 h
HepG2 = assay: Anticancer activity against human HepG2 cells assessed as cell growth inhibition measured for 72 hrs by MTT assay; assay type: functional, cell-based; conditions: HepG2, 72 h
BEAS-2B = assay: Anticancer activity against human BEAS-2B cells assessed as cell growth inhibition measured for 72 hrs by MTT assay; assay type: functional, cell-based
L02 = assay: Anticancer activity against human L02 cells assessed as cell growth inhibition measured for 72 hrs by MTT assay; assay type: functional, cell-based; conditions: L02, 72 h
[4] = Selectivity ratio of IC50 for anticancer activity against human BEAS-2B cells to IC50 for anticancer activity against human A549 cells; assay type: toxicity, cell-based; conditions: BEAS-2B cells versus A549 cells, read-out: Ratio IC50
[5] = Selectivity ratio of IC50 for anticancer activity against human L02 cells to IC50 for anticancer activity against human HepG2 cells; assay type: toxicity, cell-based; conditions: L02 cells versus HepG2 cells, read-out: Ratio IC50
Plasmodium falciparum [6] = assay: Antiplasmodial activity against artemisinin-resistant Plasmodium falciparum Cam 3.1 R539 assessed as growth inhibition by SYBER green 1 dye based fluorescence assay; assay type: functional, organism-based
Plasmodium falciparum [7] = assay: Resistance index, ratio of IC50 for antiplasmodial activity against artemisinin-resistant Plasmodium falciparum Cam 3.1 R539 to IC50 for antiplasmodial activity against chloroquine-resistant Plasmodium falciparum INDO; assay type: functional
Plasmodium berghei [8] = assay: Antimalarial activity against Plasmodium berghei ANKA infected in Balb/c mouse assessed as suppression of parasitemia at 50 mg/kg, ip administered for 4 days by microscopic analysis; assay type: functional; conditions: time 4 day
Plasmodium berghei [9] = assay: Antimalarial activity against Plasmodium berghei ANKA infected in Balb/c mouse assessed as suppression of parasitemia at 50 mg/kg, po administered for 4 days by microscopic analysis; assay type: functional; conditions: time 4 day
Plasmodium falciparum [10] = assay: Antiplasmodial activity against ring stage chloroquine-resistant Plasmodium falciparum INDO assessed as percentage survival at 70 nM for 6 hrs by ring stage survival assay; assay type: functional, organism-based
Plasmodium falciparum [11] = assay: Antiplasmodial activity against ring stage chloroquine-resistant Plasmodium falciparum Cam 3.1 R539 assessed as percentage survival at 70 nM for 6 hrs by ring stage survival assay; assay type: functional
Plasmodium falciparum [12] = assay: Antiplasmodial activity against ring stage chloroquine resistant Plasmodium falciparum INDO assessed as percentage survival at 700 nM for 6 hrs by ring stage survival assay; assay type: functional
Plasmodium falciparum [13] = assay: Antiplasmodial activity against ring stage chloroquine-resistant Plasmodium falciparum Cam 3.1 R539 assessed as percentage survival at 700 nM for 6 hrs by ring stage survival assay relative to control; assay type: functional

| Compound | IC50 (Plasmodium falciparum [1]) [µM] | CC50 at 24 h [2] [µM] | selectivity ratio [3] | IC50 (A549) [µM] | IC50 (HepG2) [µM] | IC50 (BEAS-2B) [µM] | IC50 (L02) [µM] | selectivity ratio [4] | selectivity ratio [5] | IC50 (Plasmodium falciparum [6]) [µM] | Ratio IC50 (Plasmodium falciparum [7]) | Activity (Plasmodium berghei [8]) [%] | Activity (Plasmodium berghei [9]) [%] | Activity (Plasmodium falciparum [10]) | Activity (Plasmodium falciparum [11]) [%] | Activity (Plasmodium falciparum [12]) [%] | Activity (Plasmodium falciparum [13]) [%] |
| --- | --- | --- | --- | --- | --- | --- | --- | --- | --- | --- | --- | --- | --- | --- | --- | --- | --- |
| C=C(c1cc(Cl)cc(Cl)c1OCc1ccccc1)C1COC2(CCCC2)OO1 (stereo not drawn) | 0.0316 | 2.26 | 72.9 | 2.07 | 13.7 | 28.6 | 65.6 | 0.43 | 0.19 |  |  |  |  |  |  |  |  |
| C=C(c1ccc(Cl)c(Cl)c1)C1COC(C)(C)OO1 (stereo not drawn) | > 0.1 |  |  | > 100 | > 100 | > 100 | 50.9 |  |  |  |  |  |  |  |  |  |  |
| C=C(c1ccc(OC)c(F)c1)C1COC(C)(C)OO1 (stereo not drawn) | > 0.1 |  |  | 100 | > 100 | 68.7 | > 100 |  | 0.37 |  |  |  |  |  |  |  |  |
| CC(=O)O[C@H]1C(=O)[C@@]2(C)[C@H]([C@H](OC(=O)c3ccccc3)[C@]3(O)C[C@H](OC(=O)[C@H](O)[C@@H](NC(=O)c4ccccc4)c4ccccc4)C(C)=C1C3(C)C)[C@]1(OC(C)=O)CO[C@@H]1C[C@@H]2O [PACLITAXEL] |  |  |  |  | 0.19 | < 0.1 | < 0.1 |  |  |  |  |  |  |  |  |  |  |
| C=C(c1ccc(Cl)cc1Cl)C1COC(C)(C)OO1 (stereo not drawn) | > 0.1 |  |  | 92.6 | 90.5 | 68.6 | 37.7 | 0.74 | 0.16 |  |  |  |  |  |  |  |  |
| C=C(c1ccc(F)c(F)c1)C1COC2(OO1)C1CC3CC(C1)CC2C3 (stereo not drawn) | 0.0123 | 12.6 | 1050 | 4.97 | 26.1 | 57.1 | 9.48 | 6.29 | 0.48 | 0.0414 | 3.39 |  |  |  |  |  |  |
| C=C(c1ccc(F)cc1F)C1COC2(CCCC2)OO1 (stereo not drawn) | > 0.1 |  |  | 5.09 | 15.4 | 62.6 | 17.6 | 12.3 | 1.14 |  |  |  |  |  |  |  |  |
| C=C(c1ccc(F)c(F)c1)C1COC2(CCCCC2)OO1 (stereo not drawn) | > 0.1 |  |  | 7.88 | 28.6 | 61.2 | 16.5 | 1.26 | 0.22 |  |  |  |  |  |  |  |  |
| C=C(c1ccc(F)c(F)c1)C1COC2(CCCC2)OO1 (stereo not drawn) | 0.0266 | 23.3 | 895 | 11.7 | 38.6 | 73.6 | 8.84 | 7.76 | 0.36 | 0.196 | 7.36 |  |  |  |  |  |  |
| CCN(CC)CCCC(C)Nc1ccnc2cc(Cl)ccc12 (stereo not drawn) [CHLOROQUINE] |  |  |  | 100 | 49 | 3.07 | 15 |  |  |  |  | 100 | 100 |  |  |  |  |
| C=C(c1ccc(Cl)c(Cl)c1)C1COC2(CCCC2)OO1 (stereo not drawn) | > 0.1 |  |  | 4.68 | 62.6 | 50.9 | 8.45 | 10.9 | 0.13 |  |  |  |  |  |  |  |  |
| C=C(c1ccc(Cl)c(Cl)c1Cl)C1COC2(CCCCC2)OO1 (stereo not drawn) | > 0.1 |  |  | 1.37 | 9.02 | 10.3 | 1.22 | 7.51 | 0.72 |  |  |  |  |  |  |  |  |
| C=C(c1cc(Cl)cc(Cl)c1OCc1ccccc1)C1COC(C)(C)OO1 (stereo not drawn) | 0.04 | 31.6 | 811 | 58.4 | 39.5 | 25.5 | 64.1 | 3.16 | 4.78 | 0.0173 | 0.44 |  |  |  |  |  |  |
| C=C(c1cc(Cl)cc(Cl)c1OCc1ccccc1)C1COC2(OO1)C1CC3CC(C1)CC2C3 (stereo not drawn) | 0.0224 | 60.9 | 2770 | 31.6 | > 100 | > 100 | > 100 |  | 1.62 | 0.043 | 1.93 |  |  |  |  |  |  |
| C=C(c1ccc(Cl)c(Cl)c1)C1COC2(CCCCC2)OO1 (stereo not drawn) | > 0.1 |  |  | 12.8 | 83.5 | 39.4 | 83.5 | 3.07 | 2.37 |  |  |  |  |  |  |  |  |
| C=C(c1ccc(OC)c(F)c1)C1COC2(CCCC2)OO1 (stereo not drawn) | 0.0111 | 33 | 3000 | 9.7 | 29.3 | 55.8 | 18.5 | 5.75 | 0.63 | 0.0864 | 7.8 |  |  |  |  |  |  |
| C=C(c1ccc(F)c(F)c1)C1COC(C)(C)OO1 (stereo not drawn) | > 0.1 |  |  | > 100 | > 100 | > 100 | > 100 |  |  |  |  |  |  |  |  |  |  |
| C=C(c1ccc(F)cc1F)C1COC2(CCCCC2)OO1 (stereo not drawn) | > 0.1 |  |  | > 100 | 36 | 49.7 | 17.6 | 11.5 |  |  |  |  |  |  |  |  |  |
| C=C(c1ccc(Cl)c(Cl)c1Cl)C1COC2(OO1)C1CC3CC(C1)CC2C3 (stereo not drawn) | 0.0421 | 75.8 | 1810 | 15 | 34.4 | 17.6 | 6.56 | 1.17 | 0.66 |  |  |  |  |  |  |  |  |
| C=C(c1cc(Cl)cc(Cl)c1OCc1ccccc1)C1COC2(CCCCC2)OO1 (stereo not drawn) | > 0.1 |  |  | > 100 | > 100 | > 100 | > 100 |  |  |  |  |  |  |  |  |  |  |
| C=C(c1ccc(F)cc1F)C1COC(C)(C)OO1 (stereo not drawn) | > 0.1 |  |  | > 100 | > 100 | > 100 | > 100 |  |  |  |  |  |  |  |  |  |  |
| C=C(c1ccc(Cl)c(Cl)c1Cl)C1COC(C)(C)OO1 (stereo not drawn) | > 0.1 |  |  | 52.1 | 27.3 | 10.2 | 18.1 | 0.19 | 0.14 |  |  |  |  |  |  |  |  |
| C=C(c1ccc(Cl)c(Cl)c1)C1COC2(OO1)C1CC3CC(C1)CC2C3 (stereo not drawn) | 0.0224 | 13.2 | 599 | 2.93 | 34.3 | 26.7 | 3.36 | 9.11 | 0.5 | 0.05 | 2.24 |  |  |  |  |  |  |
| C=C(c1ccc(F)cc1F)C1COC2(OO1)C1CC3CC(C1)CC2C3 (stereo not drawn) | > 0.1 |  |  | 4.43 | 65.6 | 46.4 | 10.9 | 10.5 | 0.16 |  |  |  |  |  |  |  |  |
| C[C@@H]1CC[C@H]2[C@@H](C)C(=O)O[C@@H]3O[C@@]4(C)CC[C@@H]1[C@]32OO4 [ARTEMISININ] | 0.0066 | > 26 | 4330 | 9.85 | 4.09 | 7.53 | 8.25 | 0.76 | 2.01 | 0.0135 | 2.05 |  |  | inactive | 50 | 10 | 20 |
| C=C(c1ccc(OC)c(F)c1)C1COC2(CCCCC2)OO1 (stereo not drawn) | > 0.1 |  |  | 6.53 | 13.1 | 37.7 | 15.4 | 5.77 | 1.17 |  |  |  |  |  |  |  |  |
| C=C(c1ccc(Cl)cc1Cl)C1COC2(OO1)C1CC3CC(C1)CC2C3 (stereo not drawn) | 0.0154 | 14.8 | 989 | 9.92 | 17.2 | 10.2 | 12.5 | 1.02 | 0.41 | 0.0462 | 2.99 |  |  |  |  |  |  |

— ChEMBL document CHEMBL5053494, “Novel halogenated arylvinyl-1,2,4 trioxanes as potent antiplasmodial as well as anticancer agents: Synthesis, bioevaluation, structure-activity relationship and in-silico studies” (Eur J Med Chem, 2021)
